Each structure is given as a SMILES string. Where “and” joins values, the source holds several entries; their conditions need not be identical. Equal values may be shown once.

In data set [1] the target is T1, hSGLT1 (Homo sapiens, UniProt P13866).
T1 sequence (P13866 1-664): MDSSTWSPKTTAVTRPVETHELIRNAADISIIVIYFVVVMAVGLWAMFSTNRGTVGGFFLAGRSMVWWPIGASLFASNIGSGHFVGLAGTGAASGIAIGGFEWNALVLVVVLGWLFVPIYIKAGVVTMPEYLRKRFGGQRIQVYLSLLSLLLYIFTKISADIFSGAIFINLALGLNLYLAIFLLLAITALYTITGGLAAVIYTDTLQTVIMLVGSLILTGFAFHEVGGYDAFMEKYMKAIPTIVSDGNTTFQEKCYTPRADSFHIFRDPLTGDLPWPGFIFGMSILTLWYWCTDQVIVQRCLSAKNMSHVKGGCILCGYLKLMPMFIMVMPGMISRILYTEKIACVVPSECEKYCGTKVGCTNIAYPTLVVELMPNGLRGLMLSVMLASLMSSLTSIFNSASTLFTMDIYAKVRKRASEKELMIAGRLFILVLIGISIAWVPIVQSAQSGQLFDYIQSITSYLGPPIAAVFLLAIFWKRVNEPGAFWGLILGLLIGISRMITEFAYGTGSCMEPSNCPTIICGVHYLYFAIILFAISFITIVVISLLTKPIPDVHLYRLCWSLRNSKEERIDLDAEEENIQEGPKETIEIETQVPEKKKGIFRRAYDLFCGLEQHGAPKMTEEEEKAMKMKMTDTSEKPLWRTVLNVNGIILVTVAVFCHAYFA
Put plainly: SGLT1 functional assay: hSGLT1 IC50 (selectivity counter-screen to the SGLT2 AMG uptake assay). The format is cell-based. To be noted: individual runs (Run No.). Background: The purpose of a counterscreen is to sort out artefacts and off-target activity.

Data set [2] in a line: Pharmacokinetic testing in rats (IV or PO). The note with it: rat. The format is in vivo. The protocol: Examples 1A, 2A, 4A, 12A, and 14A were tested in rats to assess pharmacokinetic parameters including maximum concentration (Cmax), area under the plasma concentration time curve (AUC), clearance (CL), steady state volume of distribution (Vss), half life (t1/2), and bioavailability (F). Male Sprague Dawley rats (˜300 g) were used. Rats received compound by intravenous (IV) or oral gavage (PO) administration and the doses tested including vehicle to formulate dosing solutions are listed in Table 5.
Following IV or PO administration, 0.2 mL blood was sampled from the jugular vein at various timepoints (Table 5). Twenty microL aliquots of plasma samples and standards were subjected to protein precipitation with acetonitrile containing an internal standard. Samples were vortexed and centrifuged to obtain supernatant which was analyzed by LC-MS/MS. Analyst (Version 1.4.1) was used to measure peak areas and peak area ratios of analyte to internal standard were calculated. LC-MS/MS conditions are as follows: Mass Spectrometer+Source Type was Sciex API 4000−Turbo Spray; HPLC pump was Shimadzu; Autosampler was CTC PAL Autosampler; Injection volume was 3.0 to 10 microL; A gradient was used with mobile phase A: 10 mM ammonium acetate and 1% Isopropyl alcohol in water; B: Acetonitrile; Flowrate 0.300 mL per minute (Column 2.0×30 mm 5 microm LUNA C18 column (phenomenex)). Detection mode was negative.
A calibration curve was constructed from the peak area ratios of the standards to the internal standard by applying a weighted linear (1/x or 1/x2) regression. The dynamic range of the standard curve was 5.00 ng/mL to 5000 ng/mL.
Pharmacokinetic parameters were determined from individual animal data using non-compartmental analysis in Watson (version 7.2). Concentrations below the limit of quantitation (BLQ) were recorded as 0 ng/mL for use in calculations.
The following calculations were used: AUC(0−τ)=Determined using the linear trapezoidal method AUC(0−□)=AUC(0−τ) plus extrapolated area determined by dividing plasma concentration at τ by the slope of the terminal log-linear phase CL=Dose/AUC(0−∞) Vdss=CL×MRT Cmax=Recorded directly from plasma concentration time curve Tmax=Recorded directly from plasma concentration time curve t½=ln(0.5)/slope of the terminal log-linear phase F %=AUC(0−∞)PO per dose/AUC(0−∞)IV per dose C(0)=Extrapolated by linear regression from the apparent distribution phase following IV administration MRT=AUMC(AUC(0−∞)/AUC(0−∞)

[3] abbreviates: male, Sprague Dawley, plasma, IV, 2 mg/kg.
The mark [4] stands for this setting: male, Sprague Dawley, plasma, PO, 10 mg/kg, PEG200/0.5% MC.
Setting [5] is: male, Sprague Dawley, plasma, PO, 2 mg/kg, Tween 80/0.5% MC.
Where [6] appears, read: male, Sprague Dawley, plasma, PO, 5 mg/kg, 20% PEG/24% HBCD.

The IC50 is the concentration that gives 50% inhibition. A lower IC50 goes with greater potency. The term AUC(0-inf) denotes total exposure, with the tail of the curve extrapolated. A low value points to less exposure. By Cmax is commonly meant the highest concentration seen after dosing. In general, half-life refers to the time needed for the level to fall by half in the phase considered. A high value points to slow decline. Turning to `COc1ccc(Cc2cc([C@]34OC[C@](CO)(O3)[C@@H](O)[C@H](O)[C@H]4O)ccc2C)cc1` [Example 1A, (1S,2S,3S,4R,5S)-1-hydroxymethyl-5-[3-(4-methoxy-benzyl)-4-methyl-phenyl]-6,8-dioxa-bicyclo[3.2.1]octane-2,3,4-triol], the IC50 in data set [1] is 359 nM and 1080 nM and 454 nM and 327 nM and 562 nM and 262 nM. The compound further had an AUC(0-inf) in data set [2] (setting [3]) of 947 ng·h/mL. Moreover, in data set [2] (setting [4]), the AUC(0-inf) was determined as 2680 ng·h/mL, the highest level (Cmax) was 1650 ng/mL and the half-life is 2.82 h. Moreover, in data set [2] (IV, 2 mg/kg), the CL amounted to 37.1 mL/min/kg, the Vss came out at 1.71 L/kg and the t1/2 was found to be 0.962 h. Moreover, the F in data set [2] (PO, 10 mg/kg, PEG200/0.5% MC) is 56.5%.

`CCOc1ccc(Cc2cc([C@]34OC[C@](CO)(O3)[C@@H](O)[C@H](O)[C@H]4O)ccc2Cl)cc1` [Example 4A, (1S,2S,3S,4R,5S)-5-[4-chloro-3-(4-ethoxy-benzyl)-phenyl]-1-hydroxymethyl-6,8-dioxa-bicyclo[3.2.1]octane-2,3,4-triol]: the IC50 in data set [1] was 1590 nM and 1010 nM and 1750 nM and > 1000 nM and 2090 nM and 1810 nM and 2860 nM and 2480 nM and 2840 nM. This compound also registered an AUC(0-inf) in data set [2] (setting [3]) of 8480 ng·h/mL. Further, the Vd in data set [2] (male, Sprague Dawley, plasma, IV, 2 mg/kg, read-out: Vss) was found to be 1.1 L/kg. In data set [2] (setting [5]), the AUC(0-inf) was 5650 ng·h/mL, the Cmax was determined as 772 ng/mL and the half-life was 3.7 h. Further, in data set [2] (setting [6]), the AUC(0-inf) was 16800 ng·h/mL and the peak concentration (Cmax) stood at 1190 ng/mL. Besides, in data set [2] (IV, 2 mg/kg), the CL is on record as 4.04 mL/min/kg and the t1/2 was found to be 4.1 h. Further, the F in data set [2] (PO, 2 mg/kg, Tween 80/0.5% MC) turned out to be 67%. The F in data set [2] (PO, 5 mg/kg, 20% PEG/24% HBCD) came to 79%.

The record behind these values is US8080580B2, “Dioxa-bicyclo[3.2.1]octane-2,3,4-triol derivatives” (Pfizer Inc., priority 2008, dated 2011).
